Measurements reported in patent publication US20240390341A1, “METHODS FOR TREATING ADRENAL GLAND TUMORS” (Corcept Therapeutics Incorporated, priority 2023, published 2024).
Entries after “also recorded” stand apart in the source; their conditions may differ.

Experiments:
pituitary macroadenomas = conditions: following administration of relacorilant; cited from earlier work
[1] = tested on: cortisol-secreting adrenal adenoma; experiment: CT imaging of adrenal gland tumor size in GRADIENT study patients; assay type: in vivo, human
Source text: (§1) The following protocol describes the GRADIENT clinical trial, an on-going, randomized, double-blind, placebo-controlled Phase 3 study which focuses on patients with hypercortisolism secondary to adrenal adenoma(s) or hyperplasia (ClinicalTrials.gov Identifier: NCT04308590). This study includes patients with cortisol-secreting adrenal adenomas or hyperplasia associated with DM/IGT (diabetes […] (DM) and/or impaired glucose tolerance (IGT)) and/or uncontrolled systolic hypertension. The study enrolled patients with hypercortisolism due to cortisol secreting adrenal adenomas or hyperplasia. These patients may or may not present the classic clinical manifestations of overt Cushing syndrome (i.e., facial appearance, buffalo hump, striae, etc.). Patients were identified as suffering from cortisol-secreting adrenal gland tumors based on abnormal dexamethasone suppression test (DST) and low ACTH. Patients could receive medications that were commonly used to treat diabetes, hypertension, or dyslipidemia if required. Following screening, those patients meeting study criteria were randomly assigned to receive doses of either placebo or relacorilant for 22 weeks of treatment. Patient follow-up was within 28 days of the last dose. Total patient participation in the study was up to 32 weeks. The GRADIENT study design is illustrated in FIG. 1. Patients discussed herein were participants in the GRADIENT study. […] The starting dose at Baseline was 100 mg relacorilant or matching placebo once daily for 2 weeks, after which the dose was increased to 200 mg. As tolerated, the dose was then increased by 100 mg to 300 mg once daily after 4 weeks, and, as tolerated, the dose was then increased to 400 mg once daily after another 4 weeks. If a dose was not tolerated, dose interruption, dose reduction, and dose re-escalation were allowed. Patients were maintained at a once-daily dose of 400 mg, or at their highest tolerated dose. Dose titrations after 18 weeks were not permitted. Patients who completed the study were permitted to continue relacorilant treatment in an extension study if they have at least 80% adherence with scheduled dosing (by capsule counts), and are expected to maintain clinical benefit from the study drug. Although not expected to regress, adrenal tumors progress very slowly, and rarely progress into overt Cushing syndrome ([…] et al. 2016 Eur J Endocrinol. 175 (2):G1-[…]. doi: 10.1530/EJE-16-0467). Patients receiving placebo continued to receive their previously prescribed medications; thus, although the placebo was not expected to provide additional benefit to those patients receiving placebo, neither was any detriment expected. Relacorilant was supplied as 100 mg capsules for oral dosing. […]

[2] = tested on: plasma ACTH, cortisol levels; experiment: Plasma ACTH, cortisol and DST in a GRADIENT study patient; assay type: in vivo, human; conditions: FIG. 2 patient
Source text: as §1, with “expected.” for “expected. Relacorilant was supplied as 100 mg capsules for oral dosing.”

ACTH and cortisol levels = conditions: Cushing's syndrome patients; cited from earlier work
glucocorticoid receptor = glucocorticoid receptor (Homo sapiens, UniProt P04150); conditions: HepG2 cells; cited from earlier work
Sequence of glucocorticoid receptor (P04150 whole entry): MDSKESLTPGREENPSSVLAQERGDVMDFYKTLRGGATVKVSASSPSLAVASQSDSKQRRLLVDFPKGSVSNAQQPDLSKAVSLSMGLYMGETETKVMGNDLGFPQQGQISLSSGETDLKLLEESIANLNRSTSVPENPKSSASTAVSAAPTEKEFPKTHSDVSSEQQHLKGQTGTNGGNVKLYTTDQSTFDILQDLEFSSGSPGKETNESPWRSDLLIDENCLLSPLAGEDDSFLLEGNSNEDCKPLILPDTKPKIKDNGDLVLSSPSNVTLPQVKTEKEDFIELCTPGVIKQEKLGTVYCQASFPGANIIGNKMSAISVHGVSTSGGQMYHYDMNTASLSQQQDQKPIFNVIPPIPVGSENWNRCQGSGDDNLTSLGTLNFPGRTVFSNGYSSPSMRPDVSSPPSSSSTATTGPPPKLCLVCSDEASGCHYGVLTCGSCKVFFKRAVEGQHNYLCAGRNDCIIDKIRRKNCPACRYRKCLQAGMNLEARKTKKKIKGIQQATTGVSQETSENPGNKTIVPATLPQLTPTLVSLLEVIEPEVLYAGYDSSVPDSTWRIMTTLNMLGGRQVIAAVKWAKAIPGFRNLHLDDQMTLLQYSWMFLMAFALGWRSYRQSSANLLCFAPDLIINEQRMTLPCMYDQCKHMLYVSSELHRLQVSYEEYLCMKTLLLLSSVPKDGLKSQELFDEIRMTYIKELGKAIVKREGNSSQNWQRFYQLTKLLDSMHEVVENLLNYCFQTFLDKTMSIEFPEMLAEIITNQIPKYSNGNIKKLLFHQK

| SMILES | pituitary macroadenoma size (in words) (pituitary macroadenomas) | size of adrenal adenoma (CT) ([1]; FIG. 2 patient, benign cortisol-secreting adenoma, daily relacorilant 100 up to 400 mg/day for almost two years, initial size 4.2 cm) [cm] | degenerative changes inside the adenoma (CT) ([1]; FIG. 2 patient, after almost two years of daily relacorilant, not present in initial scan) | maximum tumor dimension (CT measurement line) ([1]; FIG. 3 patient, at least 3 months daily relacorilant 100 up to 400 mg/day, 34.09 mm / 34.08 mm before treatment) [mm] | change in adrenal gland tumor size following treatment (in words) ([1]; individual patients, daily relacorilant up to 400 mg/day) | cortisol levels (in words) ([2]; after relacorilant treatment) | dexamethasone suppression test (DST) (in words) ([2]; after relacorilant treatment) | ACTH levels (in words) ([2]; at 6 months of relacorilant administration) | plasma ACTH level ([2]; since 6 months of relacorilant, undetectable before treatment) [pg/mL] | ACTH levels (in words) (ACTH and cortisol levels) | cortisol levels (in words) (ACTH and cortisol levels) | activity of tyrosine aminotransferase (TAT) (in words) (glucocorticoid receptor) |
| --- | --- | --- | --- | --- | --- | --- | --- | --- | --- | --- | --- | --- |
| Cn1cc(S(=O)(=O)N2CCC3=Cc4c(cnn4-c4ccc(F)cc4)C[C@]3(C(=O)c3cc(C(F)(F)F)ccn3)C2)cn1 [relacorilant, (R)-(1-(4-fluorophenyl)-6-((1-methyl-1H-pyrazol-4-yl)sulfonyl)-4,4a,5,6,7,8-hexahydro-1H-pyrazolo[3,4-g]isoquinolin-4a-yl)(4-(trifluoromethyl)pyridine-2-yl)methanone] | shrink | 3.1 | exhibits areas of degeneration; also recorded: developed fat droplets | 30.99 | reduced; also recorded: decreased | decreased | normalized | normalized | 15 to 18 |  |  |  |
| CC#C[C@]1(O)CC[C@H]2[C@@H]3CCC4=CC(=O)CCC4=C3[C@@H](c3ccc(N(C)C)cc3)C[C@@]21C [mifepristone] |  |  |  |  |  |  |  |  |  | increased | increased | decreases |
